Results on five molecules are retold here after patent publication US20230109717A1 (GAIA BioMedicine Inc., priority 2020, published 2023).

In series [1] the test system is highly active NK cells. The series is described as follows: Viability of freeze-thawed highly active NK cells (7-AAD staining, flow cytometry, FlowJo). As to the method:
The highly activated NK cells (1×10^5 cells/well) thawed under each condition were centrifuged on a 96-well plate (IWAKI, 4870-800SP), the supernatant was removed, and then a 7-amino-actinomycin D (7-AAD) solution diluted with PBS (Beckman Coulter, A 07704) was added to the cells to suspend them, and the suspension was incubated at room temperature (room temperature means 15 to 25° C., the same shall apply in the following experiments) for 20 minutes. The stained cells were measured by using a flow cytometer (BD LSR Fortessa, BD Biosciences).
The NK cells frozen for 48 hours or longer were thawed in a water bath at 37° C., and 1×10^5 cells were dispensed on a 96-well plate (IWAKI) immediately after the thawing. […] The cells dispensed immediately after thawing were centrifuged immediately after they were dispensed, and the cells of the other four groups were centrifuged after incubation of 3 hours, measurement was performed by the method for staining with 7-AAD described above, and the results were analyzed with the FlowJo software (FLOWJO, LLC) to calculate viable cell rates.
The NK cells frozen for 48 hours or longer were thawed at 37° C. in a water bath, and then 1×10^5 of the cells were dispensed on a 96-well plate immediately after the thawing. […] The cells dispensed immediately after thawing were centrifuged immediately after they were dispensed, and the cells of the other four groups were centrifuged after incubation of 3 hours, measurement was performed by the method for staining with 7-AAD described above, and the results were analyzed with the FlowJo software (FLOWJO, LLC) to calculate viable cell rates.
Then, measurement was performed by the method for staining with 7-AAD described above, and the results were analyzed with the FlowJo software. […] Then, measurement was performed by the method for staining with 7-AAD described above, and the results were analyzed with the FlowJo software. (8-3) The experiment was performed in the same manner as in (8-1), but (1) PBS, (2) Plasma-Lyte A, (3) Plasma-Lyte A containing 27.7 mEq/L of lactic acid (Nacalai Tesque, 20006-62), (4) Plasma-Lyte A containing 48.84 mg/L of MgSO4.7H2O (Nacalai Tesque, 21002-85), (5) Lactoringer, (6) Veen-F (Fuso Pharma), (7) Solita-T1 (AY Pharmaceuticals), (8) Solita-T3 (AY Pharmaceuticals), (9) 5% glucose injection solution (Terumo), and (10) RPMI medium were used as the solvents for dilution of thawed cells, and the cells were incubated at 37° C. for 3 hours. In the case of (3), lactic acid was added at the same concentration as the lactate concentration in Lactoringer, and neutrality of the solution was confirmed with litmus test paper. In the case of (4), MgSO4 was added at the same concentration as the MgSO4 concentration in HBSS. Measurement was then performed by the method for staining with 7-AAD described above, and the results were analyzed with the FlowJo software. (8-4) The experiment was performed in the same manner as in (8-2), but the cells were treated by using (1) PBS, (2) Plasma-Lyte A, (3) saline (OTSUKA NORMAL SALINE, Otsuka Pharmaceutical), (4) Bicanate (Otsuka Pharmaceutical), and (5) Solacet F (Terumo) as the solvents for dilution of thawed cells. Measurement was then performed by the method for staining with 7-AAD described above, and the results were analyzed with the FlowJo software. […] Immediately after completely thawed, the cells were diluted 10-fold in (1) Plasma-Lyte A, (2) saline, (3) RPMI 1640 medium, (4) Lactoringer, (5) 0.423 mM CaCl2 prepared in Plasma-Lyte A, and (6) 1.36 mM CaCl2, and left to stand at 37° C. for 3 hours. The CaCl2 concentration of (5) was the same as that in the RPMI 1640 medium, and the CaCl2 concentration of (6) was the same as that in Lactoringer. Measurement was then performed by the method for staining with 7-AAD described above, and the results were analyzed with the FlowJo software.
(In general: Flow cytometry measures light scatter and fluorescence of single cells or particles in a stream.)

Series [2] has as its system highly active NK cells. The experiment in a line: Viable cell count and recovery rate of highly active NK cells after thawing, based on cell number at freezing. Details: species or system human. As to the method:
After the thawing, all the dilution and incubation operations were performed on a low-absorption 6-well plate.
The cells of the groups diluted in the media were incubated overnight at 37° C. under 5% CO2, and then the numbers of viable cells were counted. The experimental conditions are summarized below.
The NK cells obtained by the collection method 1 were suspended in PBS, and incubated at room temperature for 1 hour. The NK cells obtained by the collection method 2 were suspended in (1) the KBM501 medium, (2) KBM501 medium containing 30 μM 4-phenylbutyric acid, (3) KBM501 medium containing 30 μM tauroursodeoxycholic acid dihydrate (TUDCA, Tokyo Kasei Kogyo, T1567), and (4) KBM501 medium containing 30 μM 4-phenylbutyric acid and 30 μM TUDCA, and incubated at 37° C. for 2 hours under 5% CO2. […] After 1 hour, the cells were gently suspended, and number of viable cells was counted. After another 5-fold dilution in the KBM501 medium and incubation at 37° C. for 2 hours under 5% CO2, number of viable cells was counted, and the recovery rate based on the number of cells at the time of freezing was calculated.
After 1 and 3 hours, the cells were gently suspended, and viable cells were counted. In addition, after 1 hour, the cells were diluted 5-fold in the KBM501 medium, and incubated at 37° C. for 2 hours under 5% CO2, and viable cell were counted. Recovery rate of viable cells after the thawing based on the cell number at the time of freezing was calculated using the number of viable cells at each time point.
After 1 and 3 hours, the cells were gently suspended, and viable cells were counted. In addition, after 1 hour, the cells were diluted 5-fold in the KBM501 medium, and incubated at 37° C. for 2 hours under 5% CO2, and viable cell were counted. Recovery rate of viable cells after the thawing based on the cell number at the time of freezing was calculated on the basis of the number of viable cells at each time point after the thawing.

The test system of a further series is K562 cells. The experiment in a line: Cytotoxic activity rate (% Lysis) of freeze-thawed highly active NK cells against K562 cells. The settings on record: Exmp. 7, collect. method 2, pretreatment KBM + 2.4% DMSO 2 h. Format: cell-based. The protocol:
Cytotoxic activity can be expressed as the percentage of target cells killed by effector cells, and is calculated in accordance with the following equation.
(Cell death observed in co-culture with effector cells−Spontaneous cell death (negative control))/(Maximum cell death (positive control)−Spontaneous cell death (negative control))×100
For the measurement of cytotoxic activity, a group of the K562 cells reacted with the NK cells, a group consisting solely of the K562 cells as a negative control, and a group of the K562 cells fixed with 10% formalin as a positive control were prepared.
After incubation for the times indicated for the groups, the cells were collected, and prepared at a density of 2×10^6 cells/mL in 10% FBS/RPMI 1640.
The K562 cells (human chronic myelogenous leukemia cell line) were suspended in serum-free RPMI 1640 medium, stained with PKH26 Red Fluorescent Cell Linker Kit (Sigma, PKH26GL-1KT), and finally prepared at a density of 2×10^6 cells/mL in 10% FBS/RPMI 1640.
The NK cells and K562 cells were added and mixed in wells of 96-well plate (IWAKI, 4870-800SP) at a cell ratio of 1:1, and allowed to react at 37° C. for 2 hours under 5% CO2. After the reaction, the plate was centrifuged (500×g, 5 minutes), and the supernatant was removed. Then, a 7-AAD solution diluted with PBS was added to the cells to suspend the cells, and the suspension was incubated at room temperature for 20 minutes. […]
For the measurement of cytotoxic activity, a group of the NK cells reacted with the K562 cells, a group solely consisting of the K562 cells as a negative control, and a group of the K562 cells fixed with 10% formalin as a positive control were prepared.
The cells were thawed and diluted by the method described above, and a necessary amount of the cells were taken on the basis of the number of viable cells at the time of freezing, and then prepared at a density of 2×10^6 cells/mL in 10% FBS/RPMI 1640.
The K562 cells were suspended in serum-free RPMI 1640 medium, stained with PKH26 Red Fluorescent Cell Linker Kit, and then prepared at a density of 2×10^6 cells/mL in 10% FBS/RPMI 1640. […]
For the measurement of cytotoxic activity, a group of NK cells reacted with K562 cells, a group of K562 cells only as a negative control, and a group of K562 cells fixed with 10% formalin as a positive control were prepared. […]
(9-2) Cytotoxic activity was measured in the same manner as described in the section of (9-1), but after thawing and dilution, the cells were left to stand for up to 6 hours, and cytotoxic activity was measured by the method described in the section b) mentioned above at the time points of 2, 5, and 6 hours. In detail, the NK cells and K562 cells were added to each well of a 96-well plate (IWAKI, 4870-800SP) at a cell ratio of 1:1, mixed, and then allowed to react at 37° C. for 2 hours under 5% CO2.

Series [3] concerns highly active NK cells. The series is described as follows: Optical microscope observation of highly active NK cells after freeze-thawing. Format: cell-based, human. The settings on record: additive in KBM501 medium used for 10-fold dilution after thawing; 37° C. 3 hours (or 4° C. 3 hours then 37° C. 3 hours); cells washed with PBS.
Description: The NK cells frozen for 48 hours or longer were thawed at 37° C. in a water bath, then diluted 10-fold in the solvents mentioned below, left to stand at the temperatures for the times mentioned below, then observed and photographed under an optical microscope.
<1> Diluted in the KBM501 medium, and left to stand at 37° C. for 3 hours. <2> Diluted in the KBM501 medium containing Z-Vad, and left to stand at 37° C. for 3 hours. <3> Diluted in the KBM501 medium containing methylprednisolone, and left to stand at 37° C. for 3 hours. <4> Diluted in the KBM501 medium containing dexamethasone, and left to stand at 37° C. for 3 hours. <5> Diluted in the KBM501 medium, and left to stand at 4° C. for 3 hours. <6> Diluted in the KBM501 medium containing methylprednisolone, and left to stand at 4° C. for 3 hours, and then at 37° C. for 3 hours. <7> Diluted in the KBM501 medium containing dexamethasone, and left to stand at 4° C. for 3 hours, and then at 37° C. for 3 hours.

“Also recorded” adds a separate entry of the source.

`O=C(O)CCCc1ccccc1` [4-PBA, 4-phenylbutyric acid]: in the series on highly active NK cells [1] (Exmp. 4, collect. method 1, pretreatment KBM + 10 μM 4-PBA 2 h, thawing PlasmaLyte + IL-2 1 h, then KBM o/n), the Viability result is “A (“A” means 70% or higher)”. Further, the “Recovery rate after the thawing” value with highly active NK cells [2] (pretreatment 2 hours with KBM501 medium supplemented with 30 μM additive before freezing, Example 5) is recorded as “improved”. Besides, in the series on highly active NK cells [2] (treatment with KBM501 supplemented with 10 or 100 μM additive before freezing, viable cells counted after overnight incubation, Example 4), the “Viability after the thawing” value is listed as “improved”.

Consider `C[S+](C)[O-]` [DMSO, dimethyl sulfoxide], for which the Activity result with K562 cells (thawing PlasmaLyte + IL-2, R.T. 1 h) is “A (A means 70% or higher)”; with K562 cells (thawing PlasmaLyte + IL-2, R.T. 1 h, then KBM 2 h), “A (A means 70% or higher)”; in the series with K562 cells (thawing PlasmaLyte + IL-2, R.T. 3 h), “A (A means 70% or higher)”; with K562 cells (thawing PlasmaLyte R.T. 1 h) it was “A (A means 70% or higher)”; in the series with K562 cells (thawing PlasmaLyte R.T. 1 h, then KBM 2 h) it was “A (A means 70% or higher)”; in the series with K562 cells (thawing PlasmaLyte R.T. 3 h) it was “A (A means 70% or higher)”.

For the molecule `[Cl-].[Cl-].[Mg+2]` [MgCl2, Magnesium chloride], the Viability entry with highly active NK cells [1] (100 mM as solution used at thawing, cells washed with KBM501 medium, conditions (12-4) and (12-5)) is listed as “degraded”.

`O=C([O-])[C@H](O)[C@@H](O)[C@H](O)[C@H](O)CO.[Na+]` [gluconic acid, sodium gluconate]: the “Viability of frozen highly active NK cells after thawing” value in the series on highly active NK cells [1] (added to KBM501 medium used for dilution at thawing (5.02 mg/mL sodium gluconate), 37° C. 3 hours, Example 1) is “did not show improvement; also recorded: no improvement”.

As for Z-VAD, the “Viability of highly active NK cells after freeze-thawing (optical micrographs)” value in the series with highly active NK cells [3] is listed as “not improved”.
